Measured values: ChEMBL document CHEMBL5226325, “Optimization of a Screening Hit toward M2912, an Oral Tankyrase Inhibitor with Antitumor Activity in Colorectal Cancer Models” (J Med Chem, 2021)

Key:
[1] = Modulation of Wnt/beta-catenin signaling pathway in human DLD-1 cells assessed as induction of AXIN2 accumulation incubated for 24 hrs by ELISA; type: cell-based; conditions: DLD-1, 24 h
[2] = target: T1, Poly [ADP-ribose] polymerase tankyrase-2 (Homo sapiens, UniProt Q9H2K2); assay: Inhibition of TNKS2 (unknown origin) using biotinylated NAD as substrate assessed as inhibition of autoPARsylation activity incubated for 1 hr by ELISA
T1 sequence (Q9H2K2 whole entry): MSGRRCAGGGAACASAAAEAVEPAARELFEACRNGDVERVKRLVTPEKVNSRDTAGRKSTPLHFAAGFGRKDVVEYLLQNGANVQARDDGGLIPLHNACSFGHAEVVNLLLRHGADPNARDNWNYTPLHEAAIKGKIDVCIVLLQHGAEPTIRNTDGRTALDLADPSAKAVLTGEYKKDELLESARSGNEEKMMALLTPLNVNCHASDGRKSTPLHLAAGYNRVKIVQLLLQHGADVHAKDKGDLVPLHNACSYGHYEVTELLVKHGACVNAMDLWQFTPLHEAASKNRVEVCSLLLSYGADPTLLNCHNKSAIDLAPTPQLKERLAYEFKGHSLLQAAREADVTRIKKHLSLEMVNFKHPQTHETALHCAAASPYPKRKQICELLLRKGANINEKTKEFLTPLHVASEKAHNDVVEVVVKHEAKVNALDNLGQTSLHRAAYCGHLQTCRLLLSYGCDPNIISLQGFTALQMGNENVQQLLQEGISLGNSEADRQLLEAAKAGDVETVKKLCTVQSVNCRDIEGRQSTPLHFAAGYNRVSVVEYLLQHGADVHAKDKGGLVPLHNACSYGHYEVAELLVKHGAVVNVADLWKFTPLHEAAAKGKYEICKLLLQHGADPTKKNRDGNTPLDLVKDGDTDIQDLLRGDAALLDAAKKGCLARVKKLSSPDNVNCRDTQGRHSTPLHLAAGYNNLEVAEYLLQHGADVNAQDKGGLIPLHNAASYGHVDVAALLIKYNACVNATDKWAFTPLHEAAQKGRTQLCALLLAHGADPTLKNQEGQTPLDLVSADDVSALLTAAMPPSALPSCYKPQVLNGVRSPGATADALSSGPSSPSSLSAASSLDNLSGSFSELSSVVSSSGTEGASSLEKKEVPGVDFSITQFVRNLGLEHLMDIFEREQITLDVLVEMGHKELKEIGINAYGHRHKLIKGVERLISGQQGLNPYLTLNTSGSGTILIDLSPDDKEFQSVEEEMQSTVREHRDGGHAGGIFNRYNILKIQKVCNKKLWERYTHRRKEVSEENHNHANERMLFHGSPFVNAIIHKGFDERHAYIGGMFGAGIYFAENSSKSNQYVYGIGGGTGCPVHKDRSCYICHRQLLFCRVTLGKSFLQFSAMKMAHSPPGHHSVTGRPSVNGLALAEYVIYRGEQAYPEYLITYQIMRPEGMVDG

[3] = target: Poly [ADP-ribose] polymerase 1 (Homo sapiens, UniProt P09874); assay: Inhibition of PARP-1 (unknown origin) using biotinylated NAD and NAD as substrate assessed as inhibition of auto-PARsylation incubated for 150 mins by TR-FRET assay
Chain of Poly [ADP-ribose] polymerase 1 (P09874 whole entry): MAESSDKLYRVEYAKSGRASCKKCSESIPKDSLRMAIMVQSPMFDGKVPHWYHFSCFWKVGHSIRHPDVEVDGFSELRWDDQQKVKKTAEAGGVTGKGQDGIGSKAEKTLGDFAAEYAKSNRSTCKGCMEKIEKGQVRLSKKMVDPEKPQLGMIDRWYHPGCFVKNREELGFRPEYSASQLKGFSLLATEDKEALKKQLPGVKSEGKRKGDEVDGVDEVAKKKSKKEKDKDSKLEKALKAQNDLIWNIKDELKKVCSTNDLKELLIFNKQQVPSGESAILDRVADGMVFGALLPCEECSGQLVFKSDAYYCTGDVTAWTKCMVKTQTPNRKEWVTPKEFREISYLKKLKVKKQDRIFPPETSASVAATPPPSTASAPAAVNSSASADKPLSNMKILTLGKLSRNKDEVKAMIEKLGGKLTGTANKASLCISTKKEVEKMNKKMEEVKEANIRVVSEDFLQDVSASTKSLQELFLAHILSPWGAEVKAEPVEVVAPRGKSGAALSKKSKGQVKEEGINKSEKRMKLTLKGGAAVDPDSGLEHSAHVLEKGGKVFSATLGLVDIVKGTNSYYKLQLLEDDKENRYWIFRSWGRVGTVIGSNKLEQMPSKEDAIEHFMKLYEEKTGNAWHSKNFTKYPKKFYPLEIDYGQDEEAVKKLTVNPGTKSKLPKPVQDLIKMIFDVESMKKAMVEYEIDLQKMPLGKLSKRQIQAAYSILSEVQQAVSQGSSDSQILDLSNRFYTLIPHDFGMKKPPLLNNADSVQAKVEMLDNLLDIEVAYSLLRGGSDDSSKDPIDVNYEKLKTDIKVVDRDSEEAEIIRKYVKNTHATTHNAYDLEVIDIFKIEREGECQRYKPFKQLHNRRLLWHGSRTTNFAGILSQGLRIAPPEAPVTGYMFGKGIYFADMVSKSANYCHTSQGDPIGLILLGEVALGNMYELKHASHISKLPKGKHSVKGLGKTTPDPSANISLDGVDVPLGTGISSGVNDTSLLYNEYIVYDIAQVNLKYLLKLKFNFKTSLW

[4] = target: T2, Poly [ADP-ribose] polymerase tankyrase-1 (Homo sapiens, UniProt O95271); assay: Inhibition of TNKS1 (unknown origin) using biotinylated NAD as substrate assessed as inhibition of autoPARsylation activity incubated for 1 hr by ELISA
T2 sequence (O95271 whole entry): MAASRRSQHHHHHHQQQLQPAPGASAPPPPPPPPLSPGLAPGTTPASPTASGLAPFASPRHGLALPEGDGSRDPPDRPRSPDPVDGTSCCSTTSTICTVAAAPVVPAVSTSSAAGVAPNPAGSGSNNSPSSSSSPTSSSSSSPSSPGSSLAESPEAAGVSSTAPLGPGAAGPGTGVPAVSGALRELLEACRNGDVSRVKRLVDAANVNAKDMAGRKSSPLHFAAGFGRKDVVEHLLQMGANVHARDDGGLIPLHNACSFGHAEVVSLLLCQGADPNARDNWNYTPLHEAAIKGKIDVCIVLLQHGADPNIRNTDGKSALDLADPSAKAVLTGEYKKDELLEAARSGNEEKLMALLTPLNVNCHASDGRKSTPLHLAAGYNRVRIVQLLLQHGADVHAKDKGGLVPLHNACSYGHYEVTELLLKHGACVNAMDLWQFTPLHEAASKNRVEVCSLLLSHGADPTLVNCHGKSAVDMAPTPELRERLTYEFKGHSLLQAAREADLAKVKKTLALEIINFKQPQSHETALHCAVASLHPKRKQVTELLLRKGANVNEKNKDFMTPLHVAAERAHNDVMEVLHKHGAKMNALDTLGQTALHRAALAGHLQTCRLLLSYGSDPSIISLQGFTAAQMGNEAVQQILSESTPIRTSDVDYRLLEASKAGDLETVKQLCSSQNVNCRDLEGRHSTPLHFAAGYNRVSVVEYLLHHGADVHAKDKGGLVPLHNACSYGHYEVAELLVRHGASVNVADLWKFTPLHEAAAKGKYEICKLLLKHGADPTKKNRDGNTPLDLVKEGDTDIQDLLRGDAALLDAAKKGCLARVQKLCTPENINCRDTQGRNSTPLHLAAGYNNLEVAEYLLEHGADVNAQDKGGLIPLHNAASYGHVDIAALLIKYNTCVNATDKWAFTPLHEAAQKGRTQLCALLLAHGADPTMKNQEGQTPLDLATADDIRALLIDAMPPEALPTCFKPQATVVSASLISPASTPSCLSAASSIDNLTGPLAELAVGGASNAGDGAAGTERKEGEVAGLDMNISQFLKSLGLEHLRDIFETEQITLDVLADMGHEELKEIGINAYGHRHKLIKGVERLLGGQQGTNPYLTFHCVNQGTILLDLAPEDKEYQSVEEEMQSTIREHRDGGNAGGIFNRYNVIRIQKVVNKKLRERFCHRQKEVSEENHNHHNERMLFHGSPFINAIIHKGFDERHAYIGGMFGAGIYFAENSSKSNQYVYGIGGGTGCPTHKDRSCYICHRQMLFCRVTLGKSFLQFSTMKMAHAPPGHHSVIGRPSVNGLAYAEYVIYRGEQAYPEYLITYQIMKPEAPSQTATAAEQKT

[5] = target: T2, Poly [ADP-ribose] polymerase tankyrase-1; assay: Inhibition of TNKS1 (unknown origin) using biotinylated NAD as substrate assessed as inhibition of autoPARsylation activity incubated for 90 mins by TR-FRET analysis
[6] = target: T2, Poly [ADP-ribose] polymerase tankyrase-1; assay: Binding affinity to recombinant human TNKS1 (1091 to 1327 residues) assessed as dissociation constant by ITC method

Structure (SMILES)	EC50 [1]	IC50 [2]	IC50 [3]	IC50 [4]	IC50 [5]	Kd [6]
CC(C)(O)c1ccc(-c2cn3c(CO)ccc3c(=O)[nH]2)cc1	580 nM	8.2 nM	4200 nM	9.8 nM	–	–
Cc1cc2c(=O)[nH]c(-c3ccc(C(C)(C)O)cc3)cn2n1	510 nM	36 nM	3700 nM	13 nM	–	–
Cc1ccc(-c2cn3ccnc3c(=O)[nH]2)cc1	–	–	–	–	1500 nM	–
CC(C)(O)c1ccc(-c2cn3c(F)c(F)cc3c(=O)[nH]2)cc1	159 nM	3.5 nM	1300 nM	1.2 nM	–	–
Cc1ncc2c(=O)[nH]c(-c3ccc(C(C)(C)C)cc3)cn12	210 nM	3.8 nM	28000 nM	2.9 nM	–	–
CC(C)(C)c1ccc(-c2cn3cncc3c(=O)[nH]2)cc1	635 nM	35 nM	–	27 nM	–	–
Cc1ncc2c(=O)[nH]c(-c3ccc(C(C)(C)O)cc3)cn12	749 nM	14 nM	23000 nM	12 nM	–	–
CC(C)(C)c1ccc(-c2cn3ccnc3c(=O)[nH]2)cc1	1430 nM	–	–	21 nM	–	–
CC(C)(O)c1ccc(-c2cn3cc(F)cc3c(=O)[nH]2)cc1	147 nM	2.9 nM	450 nM	1.9 nM	–	–
Cc1cc2c(=O)[nH]c(-c3ccc(C(C)(C)O)cc3)cn2c1	230 nM	7.9 nM	1900 nM	2.3 nM	–	–
Cc1cc2c(=O)[nH]c(-c3ccc(C(C)(C)O)cc3)nn2n1	12000 nM	2600 nM	–	570 nM	–	–

Further molecules by falling EC50 [1], results first:

EC50 [1]	IC50 [2]	IC50 [3]	IC50 [4]	IC50 [5]	Kd [6]	Structure (SMILES)
120 nM	5.5 nM	920 nM	2.7 nM	–	6 nM	CC(C)(O)c1ccc(-c2cn3cccc3c(=O)[nH]2)cc1
118 nM	9.4 nM	630 nM	2.5 nM	–	–	CC(C)(O)c1ccc(-c2cn3cc(Cl)cc3c(=O)[nH]2)cc1
113 nM	6.1 nM	2000 nM	3.4 nM	–	6 nM	CC(C)(O)c1ccc(-c2cn3c(F)ccc3c(=O)[nH]2)cc1
96 nM	1.5 nM	440 nM	2 nM	–	–	Cc1csc2c(=O)[nH]c(-c3ccc(C(C)(C)O)cc3)nc12
93 nM	1.7 nM	748 nM	1.9 nM	–	–	Cc1ccc2c(=O)[nH]c(-c3ccc([C@@](C)(O)CO)cc3)cn12
82 nM	2 nM	604 nM	2.6 nM	–	–	Cc1ccc2c(=O)[nH]c(-c3ccc([C@](C)(O)CO)cc3)cn12
49 nM	1 nM	330 nM	1 nM	–	–	Cc1ccc2c(=O)[nH]c(-c3ccc(C4(O)CC4)cc3)cn12
28 nM	0.9 nM	950 nM	0.8 nM	–	–	Cc1ccc2c(=O)[nH]c(-c3ccc(C(C)(C)O)cc3)nn12
28 nM	1.8 nM	350 nM	2.5 nM	–	–	Cc1ccc2c(=O)[nH]c(-c3ccc(C4(O)COC4)cc3)cn12
20 nM	1.5 nM	693 nM	2.3 nM	–	–	Cc1ccc2c(=O)[nH]c(-c3ccc(C(C)(C)OCCO)cc3)cn12
18 nM	1 nM	770 nM	0.8 nM	–	–	Cc1ccc2c(=O)[nH]c(-c3ccc([C@](C)(O)CCO)cc3)cn12
16 nM	1.6 nM	340 nM	2.1 nM	–	–	Cc1ccc2c(=O)[nH]c(-c3ccc([C@@](C)(O)CCO)cc3)cn12
